From patent publication EP4603105A1, “PHARMACEUTICAL COMPOSITION CONTAINING CYCLIC COMPOUND HAVING SELECTIVE KRAS INHIBITORY EFFECT AGAINST HRAS AND NRAS” (CHUGAI SEIYAKU KABUSHIKI KAISHA, priority 2022, dated 2024)
Like-named read-outs stand apart in the source and are kept apart here.

Tests used:
[1] = molecular target: GDP-bound KRAS wild-type protein (Homo sapiens, UniProt P01116); assay: Binding to KRAS by surface plasmon resonance (SPR), dissociation constant KD
Outline: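 Captured GDP-RAS (~100–300 RU) was exposed to increasing compound concentrations, 75 s per step, in running buffer with 10 µM GDP, 10 mM MgCl2 and 4% DMSO at pH 7.4.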

[2] = molecular target: GDP-bound NRAS wild-type protein (Homo sapiens, UniProt P01111); assay: Binding to NRAS by surface plasmon resonance (SPR), KD and KD ratio to KRAS
GDP-bound NRAS wild-type protein, sequence (P01111 whole entry): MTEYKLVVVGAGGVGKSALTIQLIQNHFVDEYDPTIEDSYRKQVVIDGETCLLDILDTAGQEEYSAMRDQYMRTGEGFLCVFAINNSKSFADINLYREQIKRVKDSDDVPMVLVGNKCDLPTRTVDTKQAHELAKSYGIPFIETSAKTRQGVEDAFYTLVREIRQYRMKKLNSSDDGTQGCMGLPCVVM
Outline: (§1)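 Affinity is measured by surface plasmon resonance at 30°C against captured, GDP-loaded RAS carrying a biotinylated Avi tag. Compounds are titrated by single-cycle kinetics, and KD comes from a 1:1 fit.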

HRAS wild-type protein = HRAS wild-type protein (Homo sapiens, UniProt P01112); assay: Binding to HRAS by surface plasmon resonance (SPR), KD and KD ratio to KRAS
HRAS wild-type protein, sequence (P01112 whole entry): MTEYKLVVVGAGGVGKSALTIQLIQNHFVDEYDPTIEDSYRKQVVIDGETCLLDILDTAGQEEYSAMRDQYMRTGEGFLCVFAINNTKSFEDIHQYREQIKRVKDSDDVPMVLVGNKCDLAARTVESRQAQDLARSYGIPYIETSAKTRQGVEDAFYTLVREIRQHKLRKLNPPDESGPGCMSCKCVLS
Outline: as §1

[3] = test system: human lung cancer strain NCI-H441; assay: NCI-H441 cell proliferation inhibitory activity (CellTiter-Glo, 4 days); format: cell-based; details: read-out: NCl-H441 IC50
Outline: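 Readout: […] after the ATP-based reagent. Compound: serial dilutions in dimethyl sulfoxide.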

[4] = ratio of KD for GDP-bound NRAS wild-type protein to KD for KRAS
[5] = ratio of KD for HRAS wild-type protein to KD for KRAS

GDP-bound KRAS wild-type protein, sequence (P01116 1-188 isoform P01116-2): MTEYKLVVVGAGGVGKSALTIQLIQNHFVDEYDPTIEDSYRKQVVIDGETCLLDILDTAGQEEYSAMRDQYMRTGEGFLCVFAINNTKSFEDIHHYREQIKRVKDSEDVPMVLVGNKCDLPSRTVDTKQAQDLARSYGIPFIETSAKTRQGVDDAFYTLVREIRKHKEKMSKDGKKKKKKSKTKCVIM

Structure (SMILES) | Kd ([1]; Single Cycle Kinetics) | NRAS /KRAS [2, 4] | HRAS /KRAS (HRAS wild-type protein; [5]) | IC50 ([3]; NCI-H441 cells, 4 days) | Kd ([1]; Single Cycle Kinetics, 1:1 binding model) | NRAS /KRAS ([2]; ratio of KD with respect to GDP-bound NRAS wild-type protein to KD with respect to KRAS) | HRAS /KRAS (HRAS wild-type protein; ratio of KD with respect to HRAS wild-type protein to KD with respect to KRAS) | IC50 ([3]; 50% proliferation inhibitory concentration, four days) | Kd ([1]; 1:1 binding model)
CCC[C@H]1C(=O)N[C@@H]([C@@H](C)CC)C(=O)N(C)CC(=O)N(C)[C@H]2C/C=C\CCN(C2=O)[C@@H](Cc2ccc(C(F)(F)F)cc2)C(=O)N(C)CC(=O)N[C@@H](CCc2ccc(C(F)(F)F)c(OC)c2)C(=O)N2CC3(CC3)C[C@H]2C(=O)NC2(CCC2)C(=O)N(C)[C@@H]([C@@H](C)CC)C(=O)N(C)[C@H](C(=O)N(C)C)CC(=O)N1C [PP3410] | 0.24 nM | AA (a compound having 20 or more is denoted as AA) | A (a compound having 10 or more and less than 20 is denoted as A) | 15.6 nM |  |  |  |  | 
C#CCN1CC(=O)N(C)[C@H]2C/C=C\CCN(C2=O)[C@@H](Cc2ccc(C(F)F)cc2)C(=O)N(C)CC(=O)N[C@@H](CCc2cc(F)c(C(F)(F)F)c(F)c2)C(=O)N2C[C@H](OC(C)C)C[C@H]2C(=O)N(C)C2(CCC2)C(=O)N(C)[C@@H](C(CC)CC)C(=O)N(C)[C@H](C(=O)N(C)C)CC(=O)N(C)[C@@H](CC(F)(F)F)C(=O)N[C@@H](C(C)C)C1=O [PP3496] | 0.43 nM | A (a compound having 10 or more and less than 20 is denoted as A) | A (a compound having 10 or more and less than 20 is denoted as A) | 11.6 nM |  |  |  |  | 
CCCO[C@@H]1C[C@H]2C(=O)NC3(CC(C)(C)C3)C(=O)N(C)[C@@H](C3CCCC3)C(=O)N(C)[C@H](C(=O)N(C)CC)CC(=O)N(C)[C@@H](COCC)C(=O)N[C@@H]([C@@H](C)CC)C(=O)N3CCC[C@H]3C(=O)N(C)[C@H]3C/C=C\CCN(C3=O)[C@@H](Cc3ccc(C(F)(F)F)cc3)C(=O)N(C)CC(=O)N[C@@H](CCc3ccc(C(F)(F)F)c(Cl)c3)C(=O)N2C1 [PP3405] | 1.5 nM | A (a compound having 10 or more and less than 20 is denoted as A) | A (a compound having 10 or more and less than 20 is denoted as A) | 40.5 nM |  |  |  |  | 
CCO[C@@H]1C[C@H]2C(=O)NC3(CCC3)C(=O)N(C)[C@@H](C3CCCC3)C(=O)N(C)[C@H](C(=O)N(C)C)CC(=O)N(C)[C@@H](CC(C)C)C(=O)N[C@@H]([C@@H](C)CC)C(=O)N(C)CC(=O)N(C)[C@H]3C/C=C\CCN(C3=O)[C@@H](Cc3ccc(C(F)(F)F)cc3)C(=O)N(C)CC(=O)N[C@@H](CCc3cc(F)c(Cl)c(F)c3)C(=O)N2C1 [PP1263] |  |  |  |  | 0.23 nM | A (a compound having 10 or more and less than 20 is denoted as A) | A (a compound having 10 or more and less than 20 is denoted as A) | 18.9 nM | 
CCO[C@@H]1C[C@H]2C(=O)NC3(CC(C)(C)C3)C(=O)N(C)[C@@H](C3CCCC3)C(=O)N(C)[C@H](C(=O)N(C)CC)CC(=O)N(C)[C@@H]([C@H](C)OC)C(=O)N[C@@H]([C@@H](C)CC)C(=O)N(C3CC3)CC(=O)N(C)[C@H]3C/C=C\CCN(C3=O)[C@@H](Cc3ccc(C(F)(F)F)cc3)C(=O)N(C)CC(=O)N[C@@H](CCc3ccc(C(F)(F)F)c(OC)c3)C(=O)N2C1 [PP3219] | 0.53 nM | A (a compound having 10 or more and less than 20 is denoted as A) | A (a compound having 10 or more and less than 20 is denoted as A) | 19.6 nM |  |  |  |  | 
CCC[C@H]1C(=O)N[C@@H]([C@@H](C)CC)C(=O)N(C)CC(=O)N(C)[C@H]2C/C=C\CCN(C2=O)[C@@H](Cc2ccc(C(F)(F)F)cc2)C(=O)N(C)CC(=O)N[C@@H](CCc2ccc(C(F)(F)F)c(OC)c2)C(=O)N2C[C@H](OCC)C[C@H]2C(=O)NC2(CC(C)(C)C2)C(=O)N(C)[C@@H](CC2CCC2)C(=O)N(C)[C@H](C(=O)N(C)C)CC(=O)N1C [PP2764] |  | A (a compound having 10 or more and less than 20 is denoted as A) | A (a compound having 10 or more and less than 20 is denoted as A) | 55.8 nM |  |  |  |  | 0.85 nM
